# What was measured:
# [1] = Reductase (reducing) activity of peptides, fluorescent FITC-peptide assay; format: biochemical; settings: fluorescent FITC-peptide disulfide reduction; dithiothreitol control = 100%
# Protocol: The reductase activity of the peptides is determined using a fluorescent described in Tomazzolli et al. (2006) Anal. Biochem. 350, 105-112. Two peptides with a FITC label become self-quenching when they covalently attached to each other via a disulfide bridge. Upon reduction by a peptide in accordance with the present invention, the reduced individual peptides become fluorescent again.
# Control experiments were performed with dithiothreitol (100% reducing activity) and water (100% reducing activity).
# [2] = system: CD4+ T cell lines from T1D patients; experiment: FasL release by cytolytic CD4+ T cell lines; format: cell-based, human; settings: for FasL expression (pg/ml) Stimulation 1: day 11 of stimulation 1; for FasL expression (pg/ml) Stimulation 1 / FasL expression (pg/ml) Stimulation 2 / FasL expression (pg/ml) Stimulation 3 / FasL expression (pg/ml) Stimulation 4: restimulation with corresponding peptide presented by autologous B cells; for FasL expression (pg/ml) Stimulation 1 / FasL expression (pg/ml) Stimulation 2: supernatant after 24 h; for FasL expression (pg/ml) Stimulation 2: day 11 of stimulation 2; for FasL expression (pg/ml) Stimulation 3: day 11 of stimulation 3; for FasL expression (pg/ml) Stimulation 3 / FasL expression (pg/ml) Stimulation 4: supernatant after 72 h; for FasL expression (pg/ml) Stimulation 4: day 11 of stimulation 4
# Protocol: The T cell line originally generated with p17 001 as described in example 3 above was divided and stimulated with peptide P17 003 or P17 001 over 4 successive in vitro stimulations using autologous LCL B cell line as APC. At day 11 of every stimulation (total of 4), cells were tested for FasL after restimulation with their corresponding peptide presented by autologous B cells. Supernatants were collected after 24 h (stimulation 1 and 2) or 72 h (stimulation 3 and 4) of co-culture.
# [3] = system: CD4+ T cell line from a T1D patient (T1D07); experiment: Interferon gamma release by cytolytic CD4+ T cell line; format: cell-based, human; settings: for IFN-gamma (pg/ml), Stimulus 1: T cell line primed with p17-001, after 12 stimulations, co-culture with autologous LCL B cells loaded (2 μM) with peptide, supernatant after 24 hours, multiplex assay
# Protocol: Interferon gamma is an important marker to characterise cytolytic CD4+ T cells. A specific CD4+ T cell line was obtained by priming and stimulating naïve CD4+ T cells from a T1D patient (T1D07) with peptide p17-001. After 12 stimulations, cells were co-cultured with autologous LCL B cells loaded (2 μM) with peptide p17-001 or p17-003. After 24 hours, supernatants were collected and IFN-gamma was measured by multiplex assay (see table 1 below).
# [4] = system: PBMCs from T1D-patient T1D018 (IL5 positive fraction); experiment: Cytokine release in cell lines generated from T1D-patient PBMCs (MACSplex Cytokine 12 kit); format: cell-based, human; settings: supernatant after 24 h, end of stimulation 10; FIG. 2
# Protocol: (§1) PBMCs from T1D-patient T1D018 were stimulated in vitro either with P17001 peptide or P17003 peptide. These two populations specifically release […] after antigenic activation. After 6 stimulation cycles with the peptides, both cell lines were enriched for IL-5 producing cells with cytokine capture beads. The two populations of Interleukin-5 negative cells were used as controls.
# (§2) These four populations are then tested for specific release of sFasL, Granzyme B and cytokines after stimulation with their cognate peptide (P17-001 or P17-003). Supernatants are collected after 24 h of culture and sFasL and Granzyme B are measured by ELISA (sFasL: Diaclone 851730010; Granzyme B: eBioscience BMS2027) and cytokines by MACSplex Cytokine 12 kit (Miltenyi, 130-099-169).
# To determine if the in vitro cultured cells from T1D donors are specific for peptide P17001 or P17003, the release of cytokines, a hallmark for cell activation upon peptide stimulation, was investigated using MACSplex Cytokine 12 kit (Miltenyi, 130-099-169). Supernatant was collected after 24 h from the culture of T1D donor PBMCs in the absence or presence of the peptide. […] Specificity test was performed at the end of stimulation 10 (resting day). The result is presented as the difference in concentration of each cytokine in the condition without and with peptide.
# [5] = system: PBMCs from T1D-patient T1D018 (IL5 positive cells); experiment: sFasL release in cell lines generated from T1D-patient PBMCs; format: cell-based, human; settings: IL5 positive cells after 6 stimulation cycles, restimulated 24 h with cognate peptide; ELISA; p<0,0001
# Protocol: FIG. 1: Release of sFasL in cell lines generated with p17-003 or p17-001. Cells specific for p17-003 or p17-001 (IL5 positive cells; black histograms) were restimulated for 24 h with antigen presenting cells loaded with peptides p17-003 or p17-001, depending of the peptide used for their generation, and supernatant collected after 24 h of co-culture. IL-5 negative cells are for control PBMC populations (open histograms). Results represent mean+/−SD of sFasL concentration corrected per cell number.
# as §1, §2
Compound,reducing activity [1] [%],FasL expression (pg/ml) Stimulation 1 [2] [pg/mL],FasL expression (pg/ml) Stimulation 2 [2] [pg/mL],FasL expression (pg/ml) Stimulation 3 [2] [pg/mL],FasL expression (pg/ml) Stimulation 4 [2] [pg/mL],FasL (sFasL) expression compared to P17-001 ([2]; each of the four stimulations),"IFN-gamma (pg/ml), Stimulus 1 [3] [pg/mL]",IFN-gamma produced after stimulation with p17 003 compared to p17 001 ([3]; ratio of Table 1 values),eliciting peptide specific cells (cytokine release upon peptide stimulation) compared with P17001 [4],sFasL release compared with cells generated by peptide p17-001 [5] [fold]
O[C@H](CS)[C@H](O)CS (racemic) [dithiothreitol],100,–,–,–,–,–,–,–,–,–
HCPYCSLQPLALEGSLQKRG (peptide with redox motif and insulin T cell epitope) [P17 003],65,1795 ± 42.4,1812 ± 34.7,2063 ± 166,1526 ± 102,significantly higher,29.7 ± 14.1,about 3 times,more potent,4.5
"HCPYC VR SLQPLALEGSLQKRG (HCPYCVRSLQPLALEGSLQKRG; peptide with redox motif and insulin T cell epitope) [P17 001, reference compound]",68,1335 ± 23.1,1144 ± 15.4,1227 ± 49.1,1008 ± 102,–,11.1 ± 0.8,–,–,–

# Reference: patent US12583891B2, “Peptides and methods for the treatment of diabetes” (IMCYSE SA, priority 2017, dated 2026)
